Columns and labels:
MPK6 [1] = target: T1, MPK6 (Arabidopsis thaliana, UniProt Q39026); experiment: biochemical; set-up: isothermal titration calorimetry, 25 °C, PBS pH 7.4, 2% DMSO
T1 construct: MPK6ΔNt (29 to 305)

MPK6 [2] = target: T1, MPK6; experiment: biochemical; set-up: biolayer interferometry (Octet Red96), GST-tagged protein on probe, 25 °C, 1:1 model; conditions: read-out: kon (M^-1s^-1)
MPK6 [3] = target: T1, MPK6; experiment: biochemical; set-up: biolayer interferometry (Octet Red96), GST-tagged protein on probe, 25 °C, 1:1 model; conditions: read-out: koff (s^-1)
MPK6 [4] = target: T1, MPK6; experiment: BLI and ITC with recombinant MPK6; also in vitro kinase inhibition; type: binding
[5] = target: CA-MPK6 (constitutively active MPK6) (Arabidopsis thaliana, UniProt Q39026, D218G/E222A); experiment: biochemical; type: binding
Sequence of CA-MPK6 (constitutively active MPK6) (Q39026 29-305 D218G/E222A limits assumed): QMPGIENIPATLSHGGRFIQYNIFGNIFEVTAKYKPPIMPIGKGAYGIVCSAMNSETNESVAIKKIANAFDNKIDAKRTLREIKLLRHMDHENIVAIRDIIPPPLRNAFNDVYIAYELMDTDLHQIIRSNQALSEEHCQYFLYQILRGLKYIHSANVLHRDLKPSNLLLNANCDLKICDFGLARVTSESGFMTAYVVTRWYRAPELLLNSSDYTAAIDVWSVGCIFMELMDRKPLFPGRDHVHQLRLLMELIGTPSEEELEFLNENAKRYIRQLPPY

T1 sequence (Q39026 29-305): as the sequence (Q39026 29-305 D218G/E222A limits assumed) above, with G190D, A194E counted along it

| Kd (MPK6 [1]) | SMILES | kon (MPK6 [2]) | koff (MPK6 [3]) | Kd (MPK6 [4]) | Kd [5] |
| --- | --- | --- | --- | --- | --- |
| 1.2 ± 0.3 µM | Nc1ncnc2c1ncn2[C@@H]1O[C@H](COP(=O)(O)OP(=O)(O)OP(=O)(O)O)[C@@H](O)[C@H]1O [ATP] | 8920 M⁻¹ s⁻¹ | 0.0125 s⁻¹ |  |  |
|  | O=P(O)(O)C(O)c1ccc2ccccc2c1 (stereo not shown) [compound 2, hydroxy-2-naphthalenymethylphosphonic acid] | 3020 M⁻¹ s⁻¹ | 0.0175 s⁻¹ | 4.9 ± 0.6 µM | 58 ± 13 µM |

— paper PMC11797554, “Chemical genetics reveals cross-regulation of plant developmental signaling by the immune peptide-receptor pathway” (Science Advances, 2024)
